# Legend:
# [1] = tested on: HUVEC; test: Wound healing migration assay; type: cell-based, human; settings: 0.1, 1 and 10 µM
# [2] = tested on: K562 cells; test: Immunofluorescence staining of microtubule network; type: cell-based; settings: K562, 0.1 uM and 0.3 uM; Figure 4F
# [3] = tested on: THP-1; test: CCK-8 assay, THP-1; type: cell-based; settings: Homo sapiens, leukaemia, AML, CCK-8, 72 h
# Experimental: (§1) Cells were seeded in 96-well plates at a density of 8 × 10^3 per well and exposed to different concentrations of compounds for 72 h. Subsequently, 10 µL CCK8 solution was added to each well and co-incubated for another 3–4 h at 37 °C. The absorbance was determined at 450 nm. Data was calculated with GraphPad Prism5 software.[32]
# [4] = target: T1, Tubulin isolated from porcine brain tissue (Sus scrofa, UniProt P02550+P02554); test: Tubulin polymerisation assay; type: biochemical; settings: triplicate, mean ± SD; read-out: Tubulin (tubulin inhibitory polymerisation IC50)
# T1 construct: purchased Cytoskeleton (Denver, CO), via Beyotime, China; host or cells: porcine brain tissue
# T1 sequence (P02554 whole entry): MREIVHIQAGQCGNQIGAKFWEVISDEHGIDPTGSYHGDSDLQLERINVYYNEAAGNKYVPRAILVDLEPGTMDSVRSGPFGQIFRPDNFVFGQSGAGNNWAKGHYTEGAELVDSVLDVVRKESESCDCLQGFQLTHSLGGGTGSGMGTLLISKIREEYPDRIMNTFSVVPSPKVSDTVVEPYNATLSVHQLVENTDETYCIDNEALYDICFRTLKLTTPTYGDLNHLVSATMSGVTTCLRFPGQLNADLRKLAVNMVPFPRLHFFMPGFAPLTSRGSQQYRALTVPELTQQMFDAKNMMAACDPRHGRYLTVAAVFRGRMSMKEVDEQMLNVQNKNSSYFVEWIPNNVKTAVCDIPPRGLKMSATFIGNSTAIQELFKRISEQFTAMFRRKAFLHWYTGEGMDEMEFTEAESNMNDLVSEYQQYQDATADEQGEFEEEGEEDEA
# T1 sequence (P02550 whole entry): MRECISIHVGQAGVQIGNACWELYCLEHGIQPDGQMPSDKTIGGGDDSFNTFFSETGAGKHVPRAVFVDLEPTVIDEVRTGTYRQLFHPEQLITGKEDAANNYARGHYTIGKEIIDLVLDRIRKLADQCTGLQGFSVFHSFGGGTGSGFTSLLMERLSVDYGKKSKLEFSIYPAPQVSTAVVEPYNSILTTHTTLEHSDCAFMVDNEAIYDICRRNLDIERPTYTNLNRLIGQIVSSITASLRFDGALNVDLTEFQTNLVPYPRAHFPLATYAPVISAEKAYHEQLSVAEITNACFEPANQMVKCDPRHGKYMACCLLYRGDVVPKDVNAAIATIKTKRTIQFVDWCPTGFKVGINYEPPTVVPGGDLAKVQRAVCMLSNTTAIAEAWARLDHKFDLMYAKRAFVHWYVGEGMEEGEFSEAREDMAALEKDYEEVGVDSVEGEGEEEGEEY
# Experimental: Tubulin polymerisation was determined with the tubulin polymerisation assay kit (Cytoskeleton, Denver, CO which was purchased from Cytoskeleton, Beyotime, China. Tubulin isolated from porcine brain tissue was used in this commercial kit.) It is based on the principal that light is scattered by microtubules to an extent that is proportional to the concentration of the microtubule polymer. Compounds that interact with tubulin will alter the polymerisation of tubulin, and this can be detected using a spectrophotometer. Tubulin polymerisation dynamics was monitored through measuring the change of absorbance at 340 nm every 2 min for 30 min at 37 °C on a spectrophotometer.
# [5] = tested on: leukaemia cell lines; test: Anti-proliferation against a variety of leukaemia cell lines (CCK-8); type: cell-based; settings: seven leukaemia cell lines; read-out: IC50 against a variety of leukaemia cell lines (range over panel)
# Experimental: as §1
# [6] = tested on: Jurkat; test: CCK-8 assay, Jurkat; type: cell-based; settings: Homo sapiens, leukaemia, ALL, CCK-8, 72 h
# Experimental: as §1
# [7] = tested on: K562; test: CCK-8 assay, K562; type: cell-based; settings: Homo sapiens, leukaemia, CML, CCK-8, 72 h
# Experimental: as §1
# [8] = tested on: K562 cell xenograft in zebrafish embryos; test: Zebrafish xenograft of K562 cells; type: in vivo; settings: 2 µM and 6 µM, compared with the control group
# Experimental: K562 cells were labelled with Red CMTPX according to the manufacturer’s protocol. Before the microinjections, Tg(flk:EGFP) embryos were kept at 28 °C and manually dechorionated few hours. At 48 hpf, 4 nL of cells suspension containing 400 labelled cells was microinjected into the yolk of anaesthetised embryos by a pneumatic pico pump (PV820, World Precision Instruments, USA). After injection, embryos were incubated to recover for at least 1 h at 28 °C, the embryos were distributed to 6-well plates with 20 embryos placed in each well. The injected xenografts were exposed to the indicated doses of compounds and maintained at 35 °C. DMSO (0.3%) was used as a vehicle control. The survival and development of the xenografted embryos was recorded every day until the end of experiment. At one day post injection (dpi), fluorescent microscopy was used to examine K562 cells size, death and migration in caudal region of anaesthetised zebrafish.
# [9] = tested on: K562 cells; test: Western blot of apoptosis-related proteins; type: cell-based; settings: K562, 48 h
# Experimental: Exponentially growing K562 cells in were seeded in […] at a density of 6х10^5/dish and incubated overnight. The cultured cells were treated with indicated concentrations of 29e for 48 h. After the cells were washed with cold PBS, the supernatant was removed. Cells were scraped off the tissue culture dish, and then lysed by 100 µl ice-cold RIPA lysis buffer for 20 min with occasional agitation. The supernatant was collected by centrifuging at 12,000 g for 10 min at 4 °C. The protein concentration in the supernatant was determined by using a BCA protein assay kit. After BCA analysis to quantify proteins, samples were prepared in SDS-PAGE loading buffer, then boiled for 10 min at 100 °C. Western blot analyses were conducted after separation by SDS-PAGE electrophoresis and transfer to nitrocellulose filter (NC) membranes. Immunoblotting was performed according to the antibody manufacturers’ recommendations. Antibodies: caspase-3, caspase-9, PARP and β-actin.
# [10] = tested on: K562 cells; test: Cell apoptosis assay by flow cytometry (Annexin V-PE/PI); type: cell-based; settings: K562, 48 h; after treatment of 29e (control 5.95%); equals Q2+Q3 at 200 nM
# Experimental: K562 cells at 8х10^4 cells/well were seeded in 12-well cell culture plates overnight and the cultured cells were incubated with a dose range of compounds 29e for 48 h. The treated or untreated cells were washed twice with PBS and stained by Annexin V-PE and PI for 15 min without light exposure according to the manufacturer’s protocol. Apoptosis was quantified using a flow cytometer ((Becton, Dickinson and Company, USA).[32]
compound,measurement,setting,value
"COc1cc(C(=O)/C=C/c2cn(S(=O)(=O)c3ccccc3)c3ccccc23)cc(OC)c1OC [Compound 29e, (E)-3–(1-(Phenylsulfonyl)-1H-indol-3-yl)-1–(3,4,5-trimethoxyphenyl)prop-2-en-1-one]",HUVEC wound closure / migration,[1],markedly decreased the closure of wound scratching
same,Effect on cellular microtubule network,[2],conspicuous disorder for the microtubule network
same,IC50,[3],0.37 ± 0.03 µM
same,IC50,[4],4.8 ± 0.7 µM
same,IC50,[5],0.09 to 1.22 µM
same,IC50,[6],1.22 ± 0.12 µM
same,IC50,[7],0.09 ± 0.001 µM
same,K562 fluorescence intensity and tumour area in zebrafish xenograft,[8],reduced intensities and decreased tumour area
same,"Expression of caspase-3, caspase-9 and PARP",[9],decreased efficiently
same,Expression of cleaved caspase-3 and PARP,[9],up-regulation of cleaved caspase-3 and PARP
same,percentage of apoptotic cell,[10],45.81%

# Source: publication PMC8820799, “Angiogenesis and anti-leukaemia activity of novel indole derivatives as potent colchicine binding site inhibitors” (Journal of Enzyme Inhibition and Medicinal Chemistry, 2022)
